The source of these data is patent publication US12338203B2 (TAISHO PHARMACEUTICAL CO., LTD., priority 2019, dated 2025).

Molecules are shown by their SMILES.

In this assay the target is T1, human LPAR1 (Homo sapiens, UniProt Q92633).
T1 construct: expressed in transfected cells
T1 sequence (Q92633 whole entry): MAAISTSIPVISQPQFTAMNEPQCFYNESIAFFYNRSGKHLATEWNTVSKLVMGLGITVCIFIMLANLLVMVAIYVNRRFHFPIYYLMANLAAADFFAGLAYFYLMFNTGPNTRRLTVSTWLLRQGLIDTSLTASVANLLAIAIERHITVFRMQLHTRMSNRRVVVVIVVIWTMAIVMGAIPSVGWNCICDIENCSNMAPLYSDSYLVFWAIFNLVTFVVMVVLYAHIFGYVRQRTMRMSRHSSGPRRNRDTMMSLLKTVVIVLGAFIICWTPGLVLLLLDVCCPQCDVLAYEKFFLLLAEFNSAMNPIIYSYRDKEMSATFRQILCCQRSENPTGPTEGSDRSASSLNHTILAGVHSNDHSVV
Nature of the assay: Test Example 1: antagonism against response of LPA-induced increase in intracellular Ca2+ concentration in RH7777 cells stably expressing human LPAR1. The following applies: RH7777 cells stably expressing human LPAR1; Fluo-4 fluorescence, FDSS6000; read-out: IC50 value (concentration producing 50% antagonism against response of LPA-induced increase in intracellular Ca2+ concentration) (converted). The assay is classed as cell-based. A digest of the protocol: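 Ca2+ flux read at 540 nm emission (480 nm excitation) after LPA addition to human LPAR1-expressing RH7777 cells exposed to compound for 30 min, 37 °C, pH 7.4 HEPES-buffered HBSS. Response relative to no-compound control after basal subtraction; IC50 fitted from concentration–response.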
On to `CCOc1cc([C@@H](C)N(CCO[C@@H](C)c2ccccc2)C(=O)NC2(C(=O)O)CCC2)cc(OCC)c1C1CC1` [Example 4-115], for which the IC50 was 1.23 nM.
Under `CCOc1c(C(C)=O)ccc([C@@H](C)N(CCO[C@@H](C)c2ccccc2)C(=O)NC2(C(=O)O)CCC2)c1C` [Example 4-116] stands 3.91 nM; under `CCOc1cc([C@@H](C)N(CCO[C@@H](C)c2ccccc2)C(=O)NC2(C(=O)O)CC(F)(F)C2)cc(OCC)c1C(C)=O` [Example 4-117], 2.52 nM.
As to `CCOc1cc([C@@H](C)N(CCO[C@@H](C)c2ccccc2)C(=O)NC2(C(=O)O)CC(F)(F)C2)cc(OCC)c1C1CC1` [Example 4-118], the IC50 is 0.948 nM.
For the compound `CCOc1c(C(C)=O)ccc([C@@H](C)N(CCO[C@@H](C)c2ccccc2)C(=O)NC2(C(=O)O)CC(F)(F)C2)c1C` [Example 4-119], the IC50 is 3.13 nM.
As for `CCOc1cc([C@@H](C)N(CCO[C@@H](C)c2ccccc2)C(=O)N[C@H]2C[C@@](C)(C(=O)O)C2)cc(OCC)c1C(C)=O` [Example 4-120], the IC50 was 15.2 nM.
Under `CCOc1cc([C@@H](C)N(CCO[C@@H](C)c2ccccc2)C(=O)N[C@]2(C(=O)O)C[C@@H](OC)C2)cc(OCC)c1C(C)=O` [Example 4-121] stands 3.35 nM.
On to `CCOc1cc([C@@H](C)N(CCO[C@@H](C)c2ccccc2)C(=O)N[C@]2(C(=O)O)C[C@H](OC)C2)cc(OCC)c1C(C)=O` [Example 4-122], for which the IC50 was 4.53 nM.
In the case of `CCOc1cc([C@@H](C)N(CCO[C@@H](C)c2ccccc2)C(=O)NC2(C(=O)O)CC(OC)C2)cc(OCC)c1C(C)O` (stereo partly drawn) [Example 4-123] it was 7.82 nM; in that of `CCOc1cc([C@@H](C)N(CCO[C@@H](C)c2ccccc2)C(=O)NC2(C(=O)O)CC(OC)C2)cc(OCC)c1C(C)O` (stereo partly drawn) [Example 4-124], 5.44 nM.
Take `CCOc1cc([C@@H](C)N(CCO[C@@H](C)c2ccccc2)C(=O)NC2(C(=O)O)CC(OC)C2)cc(OCC)c1C(C)O` (stereo partly drawn) [Example 4-125]: the IC50 is 7.11 nM.
In the case of `CCOc1cc([C@@H](C)N(CCO[C@@H](C)c2ccccc2)C(=O)NC2(C(=O)O)CC(OC)C2)cc(OCC)c1C(C)O` (stereo partly drawn) [Example 4-126] it was 3.91 nM; in that of `CCOc1cc([C@@H](C)N(CCO[C@@H](C)c2ccccc2)C(=O)NC2(C(=O)O)CC(OC)C2)cc(OCC)c1C1(O)CC1` (stereo partly drawn) [Example 4-127], 21.3 nM; in that of `CCOc1cc([C@@H](C)N(CCO[C@@H](C)c2ccccc2)C(=O)N[C@]2(C(=O)O)C[C@@H](OC)C2)cc(OCC)c1C1CC1` [Example 4-128], 1.08 nM.
In the case of `CCOc1cc([C@@H](C)N(CCO[C@@H](C)c2ccccc2)C(=O)NC2(C(=O)O)CC(OC)C2)cc(OCC)c1C1CC1` (stereo partly drawn) [Example 4-129, cis-1-[([(1R)-1-(4-cyclopropyl-3,5-diethoxyphenyl)ethyl]{2-[(1S)-1-phenylethoxy]ethyl}carbamoyl)amino]-3-methoxycyclobutane-1-carboxylic acid], the IC50 was 1.03 nM.
`CCOc1c(C(C)=O)ccc([C@@H](C)N(CCO[C@@H](C)c2ccccc2)C(=O)NC2(C(=O)O)CC(OC)C2)c1C` (stereo partly drawn) [Example 4-130]: the IC50 is 6.66 nM.
Under `CCOc1c(C(C)=O)ccc([C@@H](C)N(CCO[C@@H](C)c2ccccc2)C(=O)NC2(C(=O)O)CC(OC)C2)c1C` (stereo partly drawn) [Example 4-131] stands 10.3 nM; under `CCOc1cc([C@@H](C)N(CCO[C@@H](C)c2ccccc2)C(=O)NC2(C(=O)O)CC(OCC)C2)cc(OCC)c1C(C)=O` (stereo partly drawn) [Example 4-132], 5.62 nM; under `CCOc1cc(C(C)N(CCO[C@@H](C)c2ccccc2)C(=O)N[C@]2(C(=O)O)C[C@H](OCC)C2)cc(OCC)c1C(C)O` (stereo partly drawn) [Example 4-133], 5.7 nM.
`CCOc1cc([C@@H](C)N(CCO[C@@H](C)c2ccccc2)C(=O)N[C@]2(C(=O)O)C[C@H](OCC)C2)cc(OCC)c1C(C)O` (stereo partly drawn) [Example 4-134]: the IC50 is 3.92 nM.
In the case of `CCOc1cc([C@@H](C)N(CCO[C@@H](C)c2ccccc2)C(=O)N[C@]2(C(=O)O)C[C@@H](OCC)C2)cc(OCC)c1C(C)O` (stereo partly drawn) [Example 4-135] it was 5.33 nM; in that of `CCOc1cc([C@@H](C)N(CCO[C@@H](C)c2ccccc2)C(=O)N[C@]2(C(=O)O)C[C@@H](OCC)C2)cc(OCC)c1C(C)O` (stereo partly drawn) [Example 4-136], 3.43 nM.
Under `CCOc1cc([C@@H](C)N(CCO[C@@H](C)c2ccccc2)C(=O)N[C@]2(C(=O)O)C[C@@H](OCC)C2)cc(OCC)c1C1(O)CC1` [Example 4-137] stands 21.9 nM; under `CCOc1cc([C@@H](C)N(CCO[C@@H](C)c2ccccc2)C(=O)N[C@]2(C(=O)O)C[C@@H](OCC)C2)cc(OCC)c1C1CC1` [Example 4-138, trans-1-[([(1R)-1-(4-cyclopropyl-3,5-diethoxyphenyl)ethyl]{2-[(1S)-1-phenylethoxy]ethyl}carbamoyl)amino]-3-ethoxycyclobutane-1-carboxylic acid], 2.91 nM; under `CCOc1cc([C@@H](C)N(CCO[C@@H](C)c2ccccc2)C(=O)N[C@]2(C(=O)O)C[C@@H](OCC)C2)cc(OCC)c1C1CC1` [Example 4-139, cis-1-[([(1R)-1-(4-cyclopropyl-3,5-diethoxyphenyl)ethyl]{2-[(1S)-1-phenylethoxy]ethyl}carbamoyl)amino]-3-ethoxycyclobutane-1-carboxylic acid], 1.32 nM.
In the case of `CCOc1c(C(C)=O)ccc([C@@H](C)N(CCO[C@@H](C)c2ccccc2)C(=O)N[C@]2(C(=O)O)C[C@@H](OCC)C2)c1C` [Example 4-140] it was 5.67 nM.
Consider `CCOc1c(C(C)=O)ccc([C@@H](C)N(CCO[C@@H](C)c2ccccc2)C(=O)N[C@]2(C(=O)O)C[C@H](OCC)C2)c1C` [Example 4-141], for which the IC50 was 7.62 nM.
In the case of `CCOc1cc([C@@H](C)N(CCO[C@@H](C)c2ccccc2)C(=O)NC2(C(=O)O)CCOCC2)cc(OCC)c1C(C)=O` [Example 4-142] it was 5.9 nM.
Take `CCOc1c(C(C)=O)ccc([C@@H](C)N(CCO[C@H](C)c2ccccc2)C(=O)NC2(C(=O)O)CC2)c1C` [Example 4-147]: the IC50 is 11.6 nM.
Under `CCOc1c(C(C)=O)ccc([C@@H](C)N(CCO[C@H](C)c2ccccc2)C(=O)NC2(C(=O)O)CCC2)c1C` [Example 4-148] stands 3.22 nM; under `CCOc1cc([C@@H](C)N(CCO[C@H](C)c2ccccc2)C(=O)NC2(C(=O)O)CC(F)(F)C2)cc(OCC)c1C(C)=O` [Example 4-149], 3.4 nM.
In the case of `CCOc1cc([C@@H](C)N(CCO[C@H](C)c2ccccc2)C(=O)NC2(C(=O)O)CC(F)(F)C2)cc(OCC)c1C1CC1` [Example 4-150] it was 1.55 nM; in that of `CCOc1c(C(C)=O)ccc([C@@H](C)N(CCO[C@H](C)c2ccccc2)C(=O)NC2(C(=O)O)CC(F)(F)C2)c1C` [Example 4-151], 2.62 nM.
Regarding `CCOc1c(C(C)=O)ccc([C@@H](C)N(CCO[C@H](C)c2ccccc2)C(=O)NC2(C(=O)O)CC(OC)C2)c1C` (stereo partly drawn) [Example 4-154], the IC50 was 3.68 nM.
As to `CCOc1c(C(C)=O)ccc([C@@H](C)N(CCO[C@H](C)c2ccccc2)C(=O)NC2(C(=O)O)CC(OCC)C2)c1C` (stereo partly drawn) [Example 4-157], the IC50 was 3.71 nM.
In the case of `CCOc1c(C(C)=O)ccc([C@@H](C)N(CCO[C@H](C)c2ccccc2)C(=O)NC2(C(=O)O)CC(OCC)C2)c1C` (stereo partly drawn) [Example 4-158] it was 4.39 nM; in that of `CCOc1c(C(C)=O)ccc([C@@H](C)N(CCO[C@H](C)c2ccccc2)C(=O)NC2(C(=O)O)CCOCC2)c1C` [Example 4-159], 6.22 nM; in that of `CCOc1cc([C@@H](C)N(CCOC(C)(C)c2ccccc2)C(=O)NC2(C(=O)O)CC(F)(F)C2)cc(OCC)c1C1CC1` [Example 4-160], 10.4 nM.
As for `CCOc1cc([C@@H](C)N(CC(=O)NCc2ccccc2)C(=O)NC2(C(=O)O)CC(F)(F)C2)cc(OCC)c1C` [Example 4-163], the IC50 is 384 nM.
In the case of `COc1cc([C@@H](C)N(CCOCc2ccccc2)C(=O)NC2(C(=O)O)CC(F)(F)C2)cc(OC)c1C` [Example 4-164] it was 3.26 nM; in that of `CCOC1CC(NC(=O)N(CCOCc2ccccc2)[C@H](C)c2cc(OC)c(C)c(OC)c2)(C(=O)O)C1` (stereo partly drawn) [Example 4-165], 4.85 nM; in that of `CCOc1c(C2CC2)ccc([C@@H](C)N(CCO[C@@H](C)c2ccccc2)C(=O)NC2(C(=O)O)CCC2)c1C` [Example 4-166], 2.02 nM.
Turning to `CCOc1c(C2CC2)ccc([C@@H](C)N(CCOC(C)c2ccccc2)C(=O)NC2(C(=O)O)CC(F)(F)C2)c1C` (stereo partly drawn) [Example 4-167], the IC50 was 2.5 nM.
As to `CCOc1c(C)ccc([C@@H](C)N(CCOC(C)c2ccccc2)C(=O)NC2(C(=O)O)CC(F)(F)C2)c1C` (stereo partly drawn) [Example 4-168], the IC50 is 6.29 nM.
On to `CCOc1c(C2CC2)ccc([C@@H](C)N(CCO[C@H](C)c2ccccc2)C(=O)NC2(C(=O)O)CCC2)c1C` [Example 4-171], for which the IC50 was 3.38 nM.
For the compound `CCOc1c(C2CC2)ccc([C@@H](C)N(CCO[C@H](C)c2ccccc2)C(=O)NC2(C(=O)O)CC(F)(F)C2)c1C` [Example 4-172], the IC50 is 2.43 nM.
For the compound `CCOc1cc([C@@H](C)N(CCO[C@@H](C)c2ccccc2Cl)C(=O)NC2(C(=O)O)CC(F)(F)C2)c(Cl)c(OCC)c1C(C)=O` [Example 4-175], the IC50 is 3.47 nM.
As for `CCOc1cc([C@@H](C)N(CCO[C@@H](C)c2cccc(Cl)c2)C(=O)NC2(C(=O)O)CCC2)c(Cl)c(OCC)c1C(C)=O` [Example 4-176], the IC50 is 15.3 nM.
In the case of `CCOc1cc([C@@H](C)N(CCO[C@@H](C)c2cccc(Cl)c2)C(=O)NC2(C(=O)O)CC(F)(F)C2)c(Cl)c(OCC)c1C(C)=O` [Example 4-177] it was 4.02 nM; in that of `CCOc1c(C2CC2)ccc([C@@H](C)N(CCOC(C)c2ccccc2Cl)C(=O)NC2(C(=O)O)CCC2)c1C` (stereo partly drawn) [Example 4-178], 24 nM; in that of `CCOc1c(C2CC2)ccc([C@@H](C)N(CCO[C@H](C)c2cccc(Cl)c2)C(=O)NC2(C(=O)O)CCC2)c1C` [Example 4-180], 6.22 nM.
